Source: patent US5399711A, “Thiomarinol compounds” (Sankyo Company, Limited, priority 1992, dated 1995)
Values after ≈ are worked out from the molar mass of the structure shown.

Legend:
tumor = settings: Japanese Patent Kokai Application Number Sho 63-27484; cited from earlier work
[1] = tested on: Mycoplasma hyorhinis BTS 7; test: Antimycoplasmal MIC (Test Example 2); assay type: cell-based; settings: BTS7, 120 h, Chanock medium, 20% horse serum, 0.005 ml of 10^5 CFU/ml, 37° C., 5 days
Description: (§1) Following the same procedure as for Test Example 1, the activity of thiomarinol, thiomarinol B, thiomarinol C and pseudomonic acid A (identified as "A", "B", "C" and "P", respectively) was assayed against various species of mycoplasma. Inoculum: 0.005 ml of 10^5 CFU/ml Thiomarinol B, Thiomarinol C and Pseudomonic acid A were all assayed on Chanock medium [prepared as described in P.N.A.S., 48, 41-49 (1962) and supplemented with 20% horse serum] for all microorganisms; Culture conditions: 37° C., 5 days, slightly aerobic (BBL gas pack method [cultivation in disposable CO2 generator from Becton Dickinson Microbiology Systems, Cockeysville, Md. 2103 U.S.A.])

bacteria = settings: compared with the thiomarinol derivatives or with pseudomonic acid; cited from earlier work
[2] = tested on: Morcranella morganii 1510; test: MIC, agar medium dilution method (Test Example 1); assay type: cell-based; settings: nutrient agar
Description: (§2) The minimum inhibitory concentration (MIC) of thiomarinol, thiomarinol B, thiomarinol C and pseudomonic acid A (identified as "A", "B", "C" and "P", respectively) given as μg/ml, against gram-positive and gram-negative bacteria was determined by the agar medium dilution method, using a nutrient agar medium (Product of Eiken Chemical Co., Ltd.).

[3] = tested on: Pseudomonas aerucrinosa No. 7; test: MIC, agar medium dilution method (Test Example 1); assay type: cell-based; settings: nutrient agar
Description: as §2

Salmonella enteritidis = test: MIC, agar medium dilution method (Test Example 1); assay type: cell-based; settings: Salmonella enterica, nutrient agar
Description: as §2

[4] = tested on: Klebsiella pneumoniae 806; test: MIC, agar medium dilution method (Test Example 1); assay type: cell-based; settings: nutrient agar
Description: as §2

Proteus vulgaris 1420 = test: MIC, agar medium dilution method (Test Example 1); assay type: cell-based; settings: nutrient agar
Description: as §2

[5] = tested on: Staphylococcus aureus 209P; test: MIC, agar medium dilution method (Test Example 1); assay type: cell-based; settings: nutrient agar
Description: as §2

[6] = tested on: Klebsiella pneumoniae 846 (R); test: MIC, agar medium dilution method (Test Example 1); assay type: cell-based; settings: nutrient agar
Description: as §2

[7] = tested on: Staphylococcus aureus 535 (MRSA); test: MIC, agar medium dilution method (Test Example 1); assay type: cell-based; settings: nutrient agar
Description: as §2

[8] = tested on: Enterococcus faecalis 681; test: MIC, agar medium dilution method (Test Example 1); assay type: cell-based; settings: nutrient agar
Description: as §2

Escherichia coli NIHJ = test: MIC, agar medium dilution method (Test Example 1); assay type: cell-based; settings: nutrient agar
Description: as §2

Enterobacter cloacae 963 = test: MIC, agar medium dilution method (Test Example 1); assay type: cell-based; settings: nutrient agar
Description: as §2

[9] = tested on: Pseudomonas aeruginosa 3719; test: MIC, agar medium dilution method (Test Example 1); assay type: cell-based; settings: nutrient agar
Description: as §2

Escherichia coli 609 = test: MIC, agar medium dilution method (Test Example 1); assay type: cell-based; settings: nutrient agar
Description: as §2

Serratia marcescens 1184 = test: MIC, agar medium dilution method (Test Example 1); assay type: cell-based; settings: nutrient agar
Description: as §2

[10] = tested on: Staphylococcus aureus 56R; test: MIC, agar medium dilution method (Test Example 1); assay type: cell-based; settings: nutrient agar
Description: as §2

[11] = tested on: Pseudomonas aerucrinosa 1001; test: MIC, agar medium dilution method (Test Example 1); assay type: cell-based; settings: nutrient agar
Description: as §2

[12] = tested on: gram-positive and gram-negative bacteria; test: Antibacterial activity, overall comparison; assay type: cell-based; settings: for antibacterial activity compared with pseudomonic acid A: general statement
Description: as §2

mycoplasma = test: Anti-mycoplasmal activity, overall comparison; assay type: cell-based; settings: compared with thiomarinol and pseudomonic acid A; Table 2
Description: Following the same procedure as for Test Example 1, the activity of thiomarinol, thiomarinol B, thiomarinol C and pseudomonic acid A (identified as "A", "B", "C" and "P", respectively) was assayed against various species of mycoplasma.

Solubility = assay type: physicochemical; settings: for solubility (insoluble in): hexane and water; for solubility (soluble in): organic solvents
[13] = tested on: Mycoplasma hyosynoviae S-16; test: Antimycoplasmal MIC (Test Example 2); assay type: cell-based; settings: S16, 120 h, Mucin PPLO agar medium, 15% horse serum, 0.005 ml of 10^5 CFU/ml, 37° C., 5 days
Description: as §1, with “microorganisms; Thiomarinol was assayed on the following media: M. hyosynoviae: Mucin PPLO* agar medium (15% horse serum supplemented) |*PPLO ( -- Pleuro -- Pneumonia- -- Like -- Organism) |PPLO Broth without CV (Difco) | 21 g |Mucin bacteriological (Difco) | 5 g |Distilled water 800 ml |Agar Noble (Difco) 12 g |Equine serum 150 ml |25% Fresh yeast extract | 50 ml” for “microorganisms;”

SMILES	antibacterial activity of prior art compounds (bacteria)	MIC [2] [µg/mL]	MIC [3] [µg/mL]	MIC (Salmonella enteritidis) [µg/mL]	MIC [4] [µg/mL]	MIC (Proteus vulgaris 1420) [µg/mL]	MIC [5] [µg/mL]	MIC [6] [µg/mL]	MIC [7] [µg/mL]	MIC [8] [µg/mL]	MIC (Escherichia coli NIHJ) [µg/mL]	MIC (Enterobacter cloacae 963) [µg/mL]	MIC (Escherichia coli 609) [µg/mL]	MIC (Serratia marcescens 1184) [µg/mL]	MIC [10] [µg/mL]	MIC [11] [µg/mL]	also measured
O=C1CCC(=O)N(O)CCCCCNC(=O)CCC(=O)N(O)CCCCCN1 [bisucaberin]	–	–	–	–	–	–	–	–	–	–	–	–	–	–	–	–	antitumor activity (tumor): exhibit antitumor activity
CC(=CC(=O)OCCCCCCCCC(=O)O)CC1OCC(CC2OC2C(C)C(C)O)C(O)C1O (stereo not drawn) [pseudomonic acid A]	weaker antibacterial activities than do the thiomarinol derivatives of the present invention	> 100	> 100	50 (≈ 99.9 µM)	100 (≈ 200 µM)	0.4 (≈ 0.799 µM)	0.05 (≈ 0.0999 µM)	100 (≈ 200 µM)	0.2 (≈ 0.399 µM)	25 (≈ 49.9 µM)	100 (≈ 200 µM)	> 100	100 (≈ 200 µM)	> 100	0.1 (≈ 0.2 µM)	> 100	MIC [1]: 0.39 µg/mL (≈ 0.779 µM); MIC [9]: > 100 µg/mL
C/C(=C\C(=O)OCCCCCCCCC(=O)O)C[C@@H]1OC[C@](O)(C[C@@H]2O[C@H]2[C@@H](C)[C@H](C)O)[C@@H](O)[C@H]1O [pseudomonic acid B]	weaker antibacterial activities than do the thiomarinol derivatives of the present invention	–	–	–	–	–	–	–	–	–	–	–	–	–	–	–	–
CC(=CC(=O)OCCCCCCCCC(=O)O)CC1OCC(CC=CC(C)C(C)O)C(O)C1O (stereo not drawn) [pseudomonic acid C]	weaker antibacterial activities than do the thiomarinol derivatives of the present invention	–	–	–	–	–	–	–	–	–	–	–	–	–	–	–	–
CC(=CC(=O)OCCCCC=CCCC(=O)O)CC1OCC(CC2OC2C(C)C(C)O)C(O)C1O (stereo not drawn) [pseudomonic acid D]	weaker antibacterial activities than do the thiomarinol derivatives of the present invention	–	–	–	–	–	–	–	–	–	–	–	–	–	–	–	–
C/C(=C\C(=O)OCCCCCCCC(=O)Nc1c2sscc-2[nH]c1=O)CC1OCC(C/C=C/C(C)C(C)O)C(O)C1O (stereo not drawn) [thiomarinol C]	–	12.5 (≈ 20 µM)	0.8 (≈ 1.28 µM)	1.5 (≈ 2.4 µM)	1.5 (≈ 2.4 µM)	0.2 (≈ 0.32 µM)	≤ 0.01	0.8 (≈ 1.28 µM)	≤ 0.01	0.8 (≈ 1.28 µM)	3.1 (≈ 4.96 µM)	3.1 (≈ 4.96 µM)	1.5 (≈ 2.4 µM)	6.2 (≈ 9.92 µM)	≤ 0.01	0.8 (≈ 1.28 µM)	antibacterial activity ([12]; compared with thiomarinol and pseudomonic acid A, Table 1): at least as good as those of thiomarinol and are, in general, significantly better than those of pseudomonic acid A; antibacterial activity compared with pseudomonic acid A [12]: significantly more potent antibacterial activity than does pseudomonic acid A; anti-mycoplasmal activity (mycoplasma): at least as good as those of thiomarinol and are, in general, significantly better than those of pseudomonic acid A; MIC [1]: 1.56 µg/mL (≈ 2.5 µM); solubility (insoluble in) (Solubility): Insoluble in hexane and water; solubility (soluble in) (Solubility): Soluble in alcohols such as methanol, ethanol, propanol and butanol, as well as in dimethyl sulfoxide, dimethylformamide, chloroform, ethyl acetate, acetone and diethyl ether; MIC [9]: 0.4 µg/mL (≈ 0.64 µM)
C/C(=C\C(=O)OCCCCCCCC(=O)Nc1c2sscc-2[nH]c1=O)C(O)C1OCC(C/C=C/C(C)C(C)O)C(O)C1O (stereo not drawn) [thiomarinol]	–	6.2 (≈ 9.68 µM)	0.4 (≈ 0.624 µM)	0.4 (≈ 0.624 µM)	0.8 (≈ 1.25 µM)	0.05 (≈ 0.078 µM)	≤ 0.01	0.2 (≈ 0.312 µM)	≤ 0.01	0.02 (≈ 0.0312 µM)	0.8 (≈ 1.25 µM)	1.5 (≈ 2.34 µM)	0.8 (≈ 1.25 µM)	3.1 (≈ 4.84 µM)	≤ 0.01	0.2 (≈ 0.312 µM)	MIC [13]: 0.025 µg/mL (≈ 0.039 µM); antibacterial activity compared with pseudomonic acid A [12]: significantly more potent antibacterial activity than does pseudomonic acid A; solubility (insoluble in) (Solubility): insoluble in hexane and water; solubility (soluble in) (Solubility): Soluble in alcohols such as methanol, ethanol, propanol and butanol; and soluble in dimethyl sulfoxide, dimethylformamide, chloroform, ethyl acetate, acetone and diethyl ether
